ChEMBL document CHEMBL1145442, “Multistructure 3D-QSAR studies on a series of conformationally constrained butyrophenones docked into a new homology model of the 5-HT2A receptor” (J Med Chem, 2007)

Target: 5-hydroxytryptamine receptor 2A (Rattus norvegicus, UniProt P14842)
Test: Binding affinity at rat 5HT2A receptor

5-hydroxytryptamine receptor 2A, sequence (P14842 whole entry): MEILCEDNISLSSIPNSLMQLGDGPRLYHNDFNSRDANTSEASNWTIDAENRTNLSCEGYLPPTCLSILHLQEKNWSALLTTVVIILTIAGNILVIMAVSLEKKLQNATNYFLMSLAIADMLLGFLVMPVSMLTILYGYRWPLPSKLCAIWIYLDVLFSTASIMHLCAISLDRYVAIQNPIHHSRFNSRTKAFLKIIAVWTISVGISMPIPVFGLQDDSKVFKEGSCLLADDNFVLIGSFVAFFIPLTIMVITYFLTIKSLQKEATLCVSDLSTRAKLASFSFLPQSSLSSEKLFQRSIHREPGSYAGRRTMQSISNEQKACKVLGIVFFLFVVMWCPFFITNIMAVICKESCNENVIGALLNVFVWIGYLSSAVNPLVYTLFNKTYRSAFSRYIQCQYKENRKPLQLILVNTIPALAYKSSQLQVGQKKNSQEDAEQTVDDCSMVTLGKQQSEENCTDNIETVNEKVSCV

Compound | Ki [nM]
O=C1CC(CN2CCN(CCCCC(=O)c3ccc(F)cc3)CC2)C(c2ccccc2)=NN1 (stereo unspecified) | 1000
O=C1CC(CN2CCC3(CC2)NCNC3=O)Cc2ccccc21 (stereo unspecified) | > 10000
COc1cc2c(cc1OC)C(=O)CC(CN1CCC3(CC1)NC(=O)NC3=O)C2 (stereo unspecified) | > 10000
O=C1c2ccoc2CCC1CCN1CCN(C(=O)c2ccc(F)cc2)CC1 (stereo unspecified) | 2000
O=C1CC(CN2CCN(CCCC(=O)c3ccc(F)cc3)CC2)C(c2ccccc2)=NN1 (stereo unspecified) | 275
O=C1CC(CN2CCC(c3noc4cc(F)ccc34)CC2)C(c2ccccc2)=NN1 (stereo unspecified) | 57.5
